# Literature values, collected in publication PMC9851200, “Multiparameter phenotypic screening for endogenous TFEB and TFE3 translocation identifies novel chemical series modulating lysosome function” (Autophagy, 2022).
# Legend:
# Parameters in all cases: method as in original PKIS2 published data
# [1] = target: kinases (KINOMEscan panel) (Homo sapiens, UniProt P16234); conditions: PDGFRA; Published KINOMEscan; ref original PKIS2 published data; cited from earlier work
# [2] = target: kinases (KINOMEscan panel) (Homo sapiens, UniProt P49761); conditions: CLK3; Published KINOMEscan; ref original PKIS2 published data; cited from earlier work
# Chain of kinases (KINOMEscan panel) (Homo sapiens, UniProt P49761) (P49761 whole entry): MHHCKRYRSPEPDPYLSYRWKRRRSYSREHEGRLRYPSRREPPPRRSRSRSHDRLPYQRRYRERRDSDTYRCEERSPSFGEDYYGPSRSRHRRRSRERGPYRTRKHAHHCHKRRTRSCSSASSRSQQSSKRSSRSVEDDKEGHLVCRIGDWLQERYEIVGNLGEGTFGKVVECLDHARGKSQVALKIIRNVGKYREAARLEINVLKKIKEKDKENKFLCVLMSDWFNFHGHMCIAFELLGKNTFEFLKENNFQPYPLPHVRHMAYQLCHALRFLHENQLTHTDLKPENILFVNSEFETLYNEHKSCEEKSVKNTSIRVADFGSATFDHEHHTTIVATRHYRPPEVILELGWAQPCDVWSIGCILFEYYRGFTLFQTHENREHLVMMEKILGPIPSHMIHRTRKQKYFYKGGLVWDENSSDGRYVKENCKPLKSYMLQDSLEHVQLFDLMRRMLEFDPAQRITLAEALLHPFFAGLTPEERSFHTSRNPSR
# [3] = target: T1, kinases (KINOMEscan panel) (Homo sapiens, UniProt Q96BR1); conditions: kinase SGK3; Published KINOMEscan; ref original PKIS2 published data; cited from earlier work
# T1 sequence (Q96BR1 1-496): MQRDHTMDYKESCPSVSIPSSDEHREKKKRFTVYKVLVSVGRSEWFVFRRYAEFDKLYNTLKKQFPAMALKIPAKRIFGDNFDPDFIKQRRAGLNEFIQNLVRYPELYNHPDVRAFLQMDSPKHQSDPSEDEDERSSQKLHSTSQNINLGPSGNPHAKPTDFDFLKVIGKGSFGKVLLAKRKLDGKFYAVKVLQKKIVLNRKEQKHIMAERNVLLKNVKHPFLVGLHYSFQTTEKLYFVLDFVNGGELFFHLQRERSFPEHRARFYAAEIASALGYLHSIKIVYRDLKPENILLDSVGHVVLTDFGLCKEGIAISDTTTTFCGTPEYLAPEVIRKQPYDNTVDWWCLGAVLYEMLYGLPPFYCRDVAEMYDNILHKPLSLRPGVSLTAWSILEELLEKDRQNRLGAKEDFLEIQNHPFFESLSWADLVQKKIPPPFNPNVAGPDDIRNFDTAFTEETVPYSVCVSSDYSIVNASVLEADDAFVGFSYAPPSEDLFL
# [4] = target: kinases (KINOMEscan panel) (Homo sapiens, UniProt Q9BWU1); conditions: kinase CDK19; Published KINOMEscan; ref original PKIS2 published data; cited from earlier work
# Chain of kinases (KINOMEscan panel) (Homo sapiens, UniProt Q9BWU1) (Q9BWU1 whole entry): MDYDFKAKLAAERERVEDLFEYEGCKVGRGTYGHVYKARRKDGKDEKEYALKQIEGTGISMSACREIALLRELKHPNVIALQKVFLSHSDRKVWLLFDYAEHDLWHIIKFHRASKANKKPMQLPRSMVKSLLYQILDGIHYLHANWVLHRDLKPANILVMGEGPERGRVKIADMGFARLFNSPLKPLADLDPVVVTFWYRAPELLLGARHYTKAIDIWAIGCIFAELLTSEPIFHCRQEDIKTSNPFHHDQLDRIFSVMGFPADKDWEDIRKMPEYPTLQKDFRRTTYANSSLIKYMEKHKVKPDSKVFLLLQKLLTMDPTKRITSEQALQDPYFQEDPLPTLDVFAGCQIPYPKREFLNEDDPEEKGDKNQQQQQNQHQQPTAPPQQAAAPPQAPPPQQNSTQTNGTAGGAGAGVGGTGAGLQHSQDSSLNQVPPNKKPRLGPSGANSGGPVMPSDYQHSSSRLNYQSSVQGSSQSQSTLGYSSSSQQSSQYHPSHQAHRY
# [5] = target: T2, kinases (KINOMEscan panel) (Homo sapiens, UniProt Q02156); conditions: kinase PRKCE; Published KINOMEscan; ref original PKIS2 published data; cited from earlier work
# T2 sequence (Q02156 1-737): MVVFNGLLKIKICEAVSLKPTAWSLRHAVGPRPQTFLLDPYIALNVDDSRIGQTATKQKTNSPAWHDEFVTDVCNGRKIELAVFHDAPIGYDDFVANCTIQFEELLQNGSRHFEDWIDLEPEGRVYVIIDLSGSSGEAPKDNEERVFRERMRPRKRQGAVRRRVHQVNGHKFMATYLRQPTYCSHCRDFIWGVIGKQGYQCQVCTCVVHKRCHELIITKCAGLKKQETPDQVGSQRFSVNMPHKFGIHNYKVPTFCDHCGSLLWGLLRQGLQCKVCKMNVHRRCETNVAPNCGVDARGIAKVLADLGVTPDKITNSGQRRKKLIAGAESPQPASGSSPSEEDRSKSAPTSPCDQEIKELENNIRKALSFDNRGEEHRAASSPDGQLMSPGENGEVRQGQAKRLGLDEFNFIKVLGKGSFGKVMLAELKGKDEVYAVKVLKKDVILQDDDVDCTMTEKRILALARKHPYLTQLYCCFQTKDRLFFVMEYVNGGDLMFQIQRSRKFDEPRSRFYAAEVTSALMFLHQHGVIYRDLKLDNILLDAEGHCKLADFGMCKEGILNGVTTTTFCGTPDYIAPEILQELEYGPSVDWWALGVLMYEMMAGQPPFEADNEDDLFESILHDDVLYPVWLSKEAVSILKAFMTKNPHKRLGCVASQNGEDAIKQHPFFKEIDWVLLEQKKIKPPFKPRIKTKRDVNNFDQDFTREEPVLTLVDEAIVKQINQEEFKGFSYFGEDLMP
# [6] = target: T3, kinases (KINOMEscan panel) (Homo sapiens, UniProt P30530); conditions: AXL; Published KINOMEscan; ref original PKIS2 published data; cited from earlier work
# T3 sequence (P30530 26-894): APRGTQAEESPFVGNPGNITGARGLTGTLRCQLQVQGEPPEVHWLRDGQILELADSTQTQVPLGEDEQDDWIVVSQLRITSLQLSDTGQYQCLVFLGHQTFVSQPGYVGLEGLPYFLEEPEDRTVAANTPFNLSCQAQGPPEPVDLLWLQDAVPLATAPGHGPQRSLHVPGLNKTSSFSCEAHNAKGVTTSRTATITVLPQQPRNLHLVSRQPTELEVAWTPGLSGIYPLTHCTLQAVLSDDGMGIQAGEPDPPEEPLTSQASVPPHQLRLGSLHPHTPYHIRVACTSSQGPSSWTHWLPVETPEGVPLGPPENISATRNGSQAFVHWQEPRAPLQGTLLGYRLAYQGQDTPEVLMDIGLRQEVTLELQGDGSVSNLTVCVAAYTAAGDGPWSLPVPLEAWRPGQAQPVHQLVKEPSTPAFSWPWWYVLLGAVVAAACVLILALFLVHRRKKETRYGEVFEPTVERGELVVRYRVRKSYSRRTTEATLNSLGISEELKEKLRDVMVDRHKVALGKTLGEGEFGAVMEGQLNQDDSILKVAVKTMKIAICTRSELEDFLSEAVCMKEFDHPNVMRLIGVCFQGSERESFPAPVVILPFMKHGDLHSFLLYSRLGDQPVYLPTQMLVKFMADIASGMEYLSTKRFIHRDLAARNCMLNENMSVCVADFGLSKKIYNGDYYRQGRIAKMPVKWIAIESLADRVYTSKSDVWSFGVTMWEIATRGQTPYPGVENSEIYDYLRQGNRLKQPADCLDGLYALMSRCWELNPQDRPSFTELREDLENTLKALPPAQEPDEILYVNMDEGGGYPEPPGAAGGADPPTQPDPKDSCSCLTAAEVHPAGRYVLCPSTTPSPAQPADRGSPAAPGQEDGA
# Chain of kinases (KINOMEscan panel) (Homo sapiens, UniProt P16234) (P16234 24-1089): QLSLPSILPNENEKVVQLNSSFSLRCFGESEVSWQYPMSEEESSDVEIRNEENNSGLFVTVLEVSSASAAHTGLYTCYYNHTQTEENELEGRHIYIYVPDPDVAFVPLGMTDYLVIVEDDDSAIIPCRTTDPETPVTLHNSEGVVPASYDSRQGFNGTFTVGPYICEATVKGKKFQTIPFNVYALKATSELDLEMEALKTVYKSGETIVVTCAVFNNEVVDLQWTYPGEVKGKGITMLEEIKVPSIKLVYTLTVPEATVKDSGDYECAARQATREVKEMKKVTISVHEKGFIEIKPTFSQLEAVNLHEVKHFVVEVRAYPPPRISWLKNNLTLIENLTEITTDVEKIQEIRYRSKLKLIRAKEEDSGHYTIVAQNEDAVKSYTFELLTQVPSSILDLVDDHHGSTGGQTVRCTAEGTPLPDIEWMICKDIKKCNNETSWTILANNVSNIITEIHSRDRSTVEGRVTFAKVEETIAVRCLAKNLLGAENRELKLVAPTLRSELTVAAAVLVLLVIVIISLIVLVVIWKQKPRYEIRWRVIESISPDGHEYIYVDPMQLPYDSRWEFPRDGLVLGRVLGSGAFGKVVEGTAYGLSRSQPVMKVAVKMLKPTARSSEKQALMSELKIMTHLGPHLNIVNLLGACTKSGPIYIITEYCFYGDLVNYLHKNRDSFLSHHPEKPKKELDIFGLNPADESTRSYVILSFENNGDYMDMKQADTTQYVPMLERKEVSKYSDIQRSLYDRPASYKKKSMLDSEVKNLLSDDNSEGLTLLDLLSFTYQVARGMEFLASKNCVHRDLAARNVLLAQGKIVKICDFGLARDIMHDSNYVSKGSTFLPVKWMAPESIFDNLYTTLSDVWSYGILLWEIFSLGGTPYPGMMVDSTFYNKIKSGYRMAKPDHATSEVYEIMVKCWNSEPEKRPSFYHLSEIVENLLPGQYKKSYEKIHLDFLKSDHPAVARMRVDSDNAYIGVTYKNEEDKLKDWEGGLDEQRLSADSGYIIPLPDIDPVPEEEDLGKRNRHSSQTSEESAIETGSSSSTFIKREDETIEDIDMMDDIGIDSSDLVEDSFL
structure (smiles),measurement,setting,value
Cc1cccc(-c2nc(Nc3ccncc3)c3ccccc3n2)n1 [NK215],KINOMEscan PDGFRA,[1],0
same,KINOMEscan CLK3,[2],31
same,KINOMEscan SGK3,[3],0
same,KINOMEscan CDK19,[4],0
same,KINOMEscan PRKCE,[5],0
same,KINOMEscan AXL,[6],7
